Experimental findings from patent publication US5688830A, “Treatment of neuropathic pain” (Syntex (U.S.A.) Inc., priority 1997, dated 1997) are described below.

The subject of series [1] is mechanical allodynia in rats. Nature of the series: Mechanical allodynia in vivo assay (spinal nerve ligation). Particulars: for analgesia against mechanical allodynia: oral administration; for ED50: Rattus norvegicus, sc. Details: species or system rat. On the procedure:
This assay determines the effectiveness of compounds in relieving one of the symptoms of neuropathic pain produced by spinal nerve ligation, namely mechanical allodynia. The surgical procedure was performed essentially as described by Kim and Chung, Pain, (1992) 50:355-363. Briefly, the rats were anesthetized with an intraperitoneal dose of pentobarbital sodium (65 mg/kg) with additional doses of anesthetic given as needed. Each animal was then placed in a prone position, a 3 cm lateral incision was made, and the left paraspinal muscles separated from the spinous process at the L4 -S2 level. The L6 transverse process was then removed in order to visually identify the L4 -L6 spinal nerves. The L5 and L6 spinal nerves were then individually isolated and tightly ligated with silk thread. The wound was then closed in layers by silk sutures. Seven to 28 days post-surgery, a calibrated series of eight von Frey filaments were used to assess mechanical allodynia. Animals were housed individually in plexiglass cages with a wire mesh floor. Filaments of increasing stiffness were applied perpendicular to the midplantar surface in the sciatic nerve distribution areas of the left hindpaw and were slowly depressed (4-6 seconds) until bending occurred. The filament application order and number of trials were determined by the up-down method of Dixon (Chaplan, et al., J. Neurosci. Methods, (1994) 53:55-63). Flinching and licking of the paw and paw withdrawal on the ligated side were all considered positive responses. The 50% paw withdrawal threshold (g) was then calculated and compared to control. The doses for the acute and chronic studies were selected on the basis of prior assessment of the acute effects on the test compounds on the gross behavior in normal rats. Briefly, the rats were weighed and grouped into cages, dosed with the test compound, and observed continuously for changes in behavior. […] Pinna and corneal reflexes were tested by using a piece of natural hair from a brush that is attached to a glass rod. The righting reflexes were tested by placing the rat flat on its back, and recording the time it takes for the animal to right itself onto all four legs. The posture and gait were assessed by placing the rat on the floor.

Series [2] deals with cold allodynia in rats. Nature of the series: Cold allodynia in vivo assay (chronic constriction injury), chronic studies. Details: species or system rat. The settings on record: oral, chronic; (R)-enantiomer 10 and 20 mg/kg, sub-threshold. How it is done: This assay determines the effectiveness of compounds in relieving one of the symptoms of neuropathic pain produced by unilateral mononeuropathy, namely cold allodynia. Unilateral mononeuropathy was produced in rats using the Chronic Constriction Injury model performed essentially as described by Bennet and Xie, Pain, (1988) 33:87-107. Briefly, the rats were anesthetized with an intraperitoneal dose of pentobarbital sodium (65 mg/kg) with additional doses of anesthetic given as needed. The lateral aspect of each rat's hind limb was shaved and scrubbed with Novasan. Using aseptic technique, an incision was made on the lateral aspect of the hind limb at the mid-thigh level. The biceps femoris was bluntly dissected to expose the sciatic nerve. On the right hind limb of each rat, four loosely tied ligatures were made around the sciatic nerve approximately 1-2 millimeters apart. On the left side of each rat, an identical dissection was performed except that the sciatic nerve was not ligated. The muscle was closed with a continuous suture pattern, and the skin was closed with wound clips. Each rat was placed individually into a plexiglass chamber with a metal plate 6 cm from the bottom. This chamber was filled with ice water to a depth of 2.5 cm above the metal plate, with the temperature of the bath maintained at 0° C. throughout the experiment. A timer was started, and the rat's response latency was measured to the nearest tenth of a second. A "response" was defined as a rapid withdrawal of the right ligated hindpaw completely out of the water while the animal was stationary and not pivoting. An exaggerated limp while the animal was walking was not scored as a response. Maximum immersion time was 20 seconds with a 20 minute interval between trials. The screening criteria were 1) the average of two trials was less than or equal to 13 seconds, and 2) there was consistency across the two trial scores. Animals were screened for hypersensitivity to cold on post-surgery days 4 through 10, and selected for inclusion in dose-response studies based on the criteria described above. The pre-dose screening values were used as the animal's baseline cold allodynia scores. For chronic studies, the animals received subcutaneous or oral injections twice daily for 4 days and once on day 5. The animals were tested for allodynia on day 1 at 1, 3 and 5 hours following the 8 am dose, and at 5 hours following the 8 am dose on days 3 and 5. Two days later, the animals were tested for cold allodynia to assess whether there was a wash-out of the drug being tested. Following this screening for cold allodynia, the animals in two of the three chronic studies received either subcutaneous or oral injections of the drug at a dose previously shown to produce significant anti-allodynic effects acutely. […]

The test system of series [3] is cold allodynia in rats. Nature of the series: Cold allodynia in vivo assay (chronic constriction injury), acute studies. Further details: species or system rat. Particulars: cold allodynia, subcutaneous, acute; for ED50: Rattus norvegicus, sc; for potency (ED50) comparison of (R)-isomers: in words. How it is done:
This assay determines the effectiveness of compounds in relieving one of the symptoms of neuropathic pain produced by unilateral mononeuropathy, namely cold allodynia. Unilateral mononeuropathy was produced in rats using the Chronic Constriction Injury model performed essentially as described by Bennet and Xie, Pain, (1988) 33:87-107. Briefly, the rats were anesthetized with an intraperitoneal dose of pentobarbital sodium (65 mg/kg) with additional doses of anesthetic given as needed. The lateral aspect of each rat's hind limb was shaved and scrubbed with Novasan. Using aseptic technique, an incision was made on the lateral aspect of the hind limb at the mid-thigh level. The biceps femoris was bluntly dissected to expose the sciatic nerve. On the right hind limb of each rat, four loosely tied ligatures were made around the sciatic nerve approximately 1-2 millimeters apart. On the left side of each rat, an identical dissection was performed except that the sciatic nerve was not ligated. The muscle was closed with a continuous suture pattern, and the skin was closed with wound clips. Each rat was placed individually into a plexiglass chamber with a metal plate 6 cm from the bottom. This chamber was filled with ice water to a depth of 2.5 cm above the metal plate, with the temperature of the bath maintained at 0° C. throughout the experiment. A timer was started, and the rat's response latency was measured to the nearest tenth of a second. A "response" was defined as a rapid withdrawal of the right ligated hindpaw completely out of the water while the animal was stationary and not pivoting. An exaggerated limp while the animal was walking was not scored as a response. Maximum immersion time was 20 seconds with a 20 minute interval between trials. The screening criteria were 1) the average of two trials was less than or equal to 13 seconds, and 2) there was consistency across the two trial scores. Animals were screened for hypersensitivity to cold on post-surgery days 4 through 10, and selected for inclusion in dose-response studies based on the criteria described above. The pre-dose screening values were used as the animal's baseline cold allodynia scores. For acute studies, the animals received either subcutaneous or oral injections and were tested for cold allodynia at 1, 3, and sometimes 5 hours post-dose. The selection of doses was similar to that of Example 12C.

Series [4] in a line: Adverse effects / gross behavior on dosing. It is filed as in vivo, rat. Particulars: for doses with adverse side effects / behavioral problems / adverse side effects observed: cold allodynia acute study; for adverse side effects observed: doses higher than 60 mg/kg. How it is done:
The doses for the acute and chronic studies were selected on the basis of prior assessment of the acute effects on the test compounds on the gross behavior in normal rats. Briefly, the rats were weighed and grouped into cages, dosed with the test compound, and observed continuously for changes in behavior. […] Pinna and corneal reflexes were tested by using a piece of natural hair from a brush that is attached to a glass rod. The righting reflexes were tested by placing the rat flat on its back, and recording the time it takes for the animal to right itself onto all four legs. The posture and gait were assessed by placing the rat on the floor.
The selection of doses was similar to that of Example 12C.

For series [5], the system named is voltage-gated sodium channels ([3H]BTX binding, rat cortex). Nature of the series: [3H]BTX binding assay, rat cortex membranes. The settings on record: rat brain cortex membranes. How it is done:
The following assays characterize the interaction of the compounds of Formula I with ligand binding sites on voltage-gated sodium channels.
Frozen tissues were obtained from Pel-Freez Biologicals (Rogers, AR). Tissues were homogenized in 10 volumes of a Tris-sucrose buffer (10 mM Tris-HCl, 250 mM sucrose, pH 7.4 at 4° C.) using 10 strokes with a glass-glass, hand-held homogenizer. The homogenates were filtered through nylon mesh and then centrifuged at 1,000×g for 15 minutes. The pellets were resuspended in a Hepes buffer (50 mM Hepes, 130 mM choline chloride, 5 mM glucose, 5.4 mM KCl, pH 7.4 at 4° C.). The resuspended pellets were centrifuged at 1,000×g for 15 minutes, resuspended in a Hepes buffer (50 mM Hepes, 130 mM choline chloride, 5 mM glucose, 5.4 mM KCl, pH 7.4 at 25° C.) and, frozen at -70° C. until used in binding assays.
Nonspecific binding was defined in the presence of 1 mM veratridine. Unless otherwise specified, PbTx (0.1 μM) and LqTx (50 μg/ml) were included in the assays. Membranes were incubated for 60 minutes at 25° C. and then filtered using GF/B glass fiber filters that had been pretreated with 0.3% PEI. Filters were rinsed with 3×1 ml of ice cold 50 mM Tris-HCl (pH 7.4 at 4° C.) and the bound radioactivity was determined by scintillation counting (Packard Top-count).

Series [6] deals with neuropathic pain models. The series can be described thus: Neuropathic pain models / standard assays (summary statements). It is filed as in vivo. The settings on record: summary statement, (S)- vs (R)-enantiomer.
Setting [7] is: mechanical allodynia, subcutaneous.
Setting [8] is: subcutaneous, mechanical allodynia study.

Structures are written as SMILES. Where two headings read alike, the source gives them in different places. Bounds are passed on as bounds.

For orientation: ED50 means the dose at which the effect has come halfway, by size or by number of responders. With `Cc1cccc(C)c1OCC(C)N` (racemic) [Formula II racemate, 2-(2,6-Dimethylphenoxy)-1-methyl-ethylamine, reference compound], in series [1] (setting [7]), the EDmax stood at 29% and the “maximal analgesic activity (Emax)” value turned out to be 29%. In addition, the “analgesia against mechanical allodynia” value in series [1] is recorded as “did not produce analgesia”. Moreover, the “anti-allodynic effect after chronic oral dosing” value in series [2] is “no anti-allodynic effect”. The 50% effective dose (ED50) in series [3] (1 hr, read-out: ED50 1 hr) was 29.8 mg/kg. Moreover, the 50% effective dose (ED50) in series [3] (3 hr, read-out: ED50 3 hr) stood at 33.6 mg/kg. In series [3] (1 hr), the “Emax 1 hr” value came out at 73%. In series [3] (3 hr), the “Emax 3 hr” value stood at 80%.

With `CNC(C)COc1c(C)cccc1C` (racemic) [Formula III racemate, [2-(2,6-dimethylphenoxy)-1-methylethyl]-methylamine], in series [1] (setting [7]), the 50% effective dose (ED50) turned out to be 31.3 mg/kg, the EDmax is on record as 67% and the “maximal analgesic activity (Emax)” value came out at 67%.

In the case of `CCCNC(C)COc1c(C)cccc1C` (racemic) [Formula IV racemate, [2-(2,6-Dimethylphenoxy)-1-methylethyl]-propylamine, reference compound], the ED50 in series [1] (setting [7]) is > 30 mg/kg. In addition, the “potency (ED50) comparison” value in series [1] (mechanical allodynia, subcutaneous, in words) was “less potent than compound III”. Further, the adverse events entry in series [4] (setting [8]) was “adverse events”; in series [4] (subcutaneous, mechanical allodynia study, listed as Compound IV), “convulsions and severe ataxia”. Besides, the “dose at which adverse events occur” value in series [4] (setting [8]) stood at 60 mg/kg.

With `CCN[C@@H](C)COc1c(C)cccc1C` [Formula I (S)-, (S)-[2-(2,6-dimethylphenoxy)-1-methylethyl]-ethylamine], the “analgesia against mechanical allodynia” value in series [1] is recorded as “did not produce analgesia”. In addition, the “doses with adverse side effects” value in series [4] (oral administration, mechanical allodynia study) is listed as “greater than 60 mg/kg”. Further, in series [4] (subcutaneous), the “doses with adverse side effects / behavioral problems” value is recorded as “higher than 60 mg/kg”; the “adverse side effects observed” value is “convulsions and immobility”. In series [5], the “potency of (R)- versus (S)-enantiomer in inhibiting [3H]BTX binding” value was “no difference in the potencies”. Also, the deleterious side effects entry in series [6] is “deleterious side effects are largely confined to the (S)-enantiomer”. Also, in series [3] (1 hr, read-out: ED50 1 hr), the ED50 was determined as 12.8 mg/kg. Further, the ED50 in series [3] (3 hr, read-out: ED50 3 hr) came to 10 mg/kg. In addition, in series [3] (1 hr), the “Emax 1 hr” value is given as 100%. The “Emax 3 hr” value in series [3] (3 hr) was 58%.

Regarding `CN[C@H](C)COc1c(C)cccc1C` [Formula III (R)-, [2-(2,6-dimethylphenoxy)-1-methylethyl]-methylamine, reference compound], the ED50 in series [3] (1 hr, read-out: ED50 1 hr) turned out to be 26.1 mg/kg; in series [3] (3 hr, read-out: ED50 3 hr), 31.4 mg/kg. Further, the “Emax 1 hr” value in series [3] (1 hr) was found to be 76%. In series [3] (3 hr), the “Emax 3 hr” value came to 74%. The “potency (ED50) comparison of (R)-isomers” value in series [3] is given as “comparable potency”.

Turning to `CCCN[C@H](C)COc1c(C)cccc1C` [Formula IV (R)-, [2-(2,6-Dimethylphenoxy)-1-methylethyl]-propylamine, reference compound], in series [4] (subcutaneous), the “doses with adverse side effects / behavioral problems” value was “higher than 60 mg/kg”; the “adverse side effects observed” value is “splayed limbs and abnormal righting reflexes”. Moreover, the 50% effective dose (ED50) in series [3] (1 hr, read-out: ED50 1 hr) came out at 28.4 mg/kg. Moreover, the ED50 in series [3] (3 hr, read-out: ED50 3 hr) was 29.9 mg/kg. In series [3] (1 hr), the “Emax 1 hr” value worked out at 74%. Moreover, the “Emax 3 hr” value in series [3] (3 hr) stood at 74%. For the same molecule, the “potency (ED50) comparison of (R)-isomers” value in series [3] is “comparable potency”.
